According to patent US12617779B2, “Self degradation-type CDK9 inhibitor prodrug and liposome encapsulating same” (Sumitomo Pharma Co., Ltd., priority 2021, dated 2026):

Experiments:
[1] = Evaluation of conversion rate to active form in buffer solution (Experimental Example 1); type: physicochemical
How it was run: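 HPLC read-out: residual parent and Alvocidib production rate after 0, 0.5, 1, 2 and 3 hours. Compounds sat at 25 umol/L, 37° C, in buffers from pH 5.0 to 7.4 (50 mM citrate below pH 6.0, 50 mM phosphate otherwise).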

[2] = Evaluation of conversion rate to active form in human plasma (Experimental Example 3); type: in vitro ADME; settings: human, 0.2 μmol/L
Method: (§1) For Example 1, Example 2, Example 3, Example 4, Example 5, Example 6, Comparative Example 3, Comparative Example 4, Comparative Example 6, Comparative Example 7, Comparative Example 8, Comparative Example 9, Comparative Example 10 and Comparative Example 12, the attrition rate of the test compound and the conversion rate of the test compound to Alvocidib in human plasma and BALB/c mouse plasma were calculated by the following method.
(§2) The test compound was added to human plasma or BALB/c mouse plasma at a concentration of 0.2 μmol/L, and incubated at 37° C. The peak areas of the test compound and Alvocidib in the sample were determined by LC-MS/MS after 0, 30 and 60 minutes for Example 1, Example 2, Example 3, Example 4, Example 5 and Example 6, and after 0, 60 and 120 minutes for Comparative Example 3, Comparative Example 4, Comparative Example 6, Comparative Example 7, Comparative Example 8, Comparative Example 9, Comparative Example 10 and Comparative Example 12, and the attrition rate of the test compound and the conversion rate of the test compound to Alvocidib were calculated by the following formula. Attrition rate of test compound (%):(peak area of test compound in sample/peak area of test compound in sample after 0 minute)×100 Conversion rate to Alvocidib (%):(peak area of Alvocidib in sample/peak area of Alvocidib in reaction solution containing 0.2 μmol/L Alvocidib)×100
(§3) The measurement conditions for LC-MS/MS are as follows. • HPLC: Prominence system (Shimadzu Corporation) • MS/MS: • Example 1, Example 2, Example 3, Example 4, Example 5, Example 6, Comparative Example 8 (mouse), Comparative Example 10 (mouse) and Comparative Example 12 (mouse) • QTRAP5500 (SCIEX) • Comparative Example 6, Comparative Example 7, Comparative Example 8 (human), Comparative Example 9, Comparative Example 10 (human) and Comparative Example 12 (human) • 4000 QTRAP (SCIEX) • column: • other than Example 3 and Example 4 • Cadenza CD-C18, 3 μm, 50×2 mm (Imtakt Corporation) • Example 3 and Example 4 • Kinetex C8, 2.6 μm, 50×2.1 mm (Phenomenex) • column temperature: 40° C. • mobile phase: • A: water containing 0.1% formic acid • B: acetonitrile containing 0.1% formic acid • A/B (min): • Example 1, Example 2, Example 5, Example 6, Comparative Example 8 (mouse), Comparative Example 10 (mouse) and Comparative Example 12 (mouse) • 90/10(0)→40/60(5.0)→10/90(5.1)→10/90(6.5)→90/10(6.6)→90/10(8.0) • Example 3 and Example 4 • 86/14(0)→86/14(3.5)→10/90(5.5)→10/90(6.5)→86/14(6.6)→86/14(9.5) • Comparative Example 6, Comparative Example 7, Comparative Example 8 (human), Comparative Example 9, Comparative Example 10 (human) and Comparative Example 12 (human) • 90/10(0)→10/90(2.5)→10/90(3.5)→90/10(3.6)→90/10(5.0) • flow rate: 0.4 mL/min • detection: ESI (positive mode) • injection: 1 to 5 μL

[3] = Evaluation of conversion rate to active form in BALB/c mouse plasma (Experimental Example 3); type: in vitro ADME; settings: BALB/c, mouse, 0.2 μmol/L
Method: as §1, §2, §3

## CCOC(=O)O[C@@H]1CN(C)CC[C@@H]1c1c(O)cc(O)c2c(=O)cc(-c3ccccc3Cl)oc12 [Comparative Example 3, reference compound]
[1]; pH5.0, 0 hr
  Production rate of Alvocidib: 1.2%
  Residual rate: 90.6%
[1]; pH5.0, 0.5 hr
  Production rate of Alvocidib: 1.2%
  Residual rate: 90.6%
[1]; pH5.0, 1 hr
  Production rate of Alvocidib: 1.2%
  Residual rate: 90.7%
[1]; pH5.0, 2 hr
  Production rate of Alvocidib: 1.3%
  Residual rate: 90.2%
[1]; pH5.0, 3 hr
  Production rate of Alvocidib: 1.2%
  Residual rate: 90.6%
[1]; pH5.5, 0 hr
  Production rate of Alvocidib: 1.1%
  Residual rate: 90.9%
[1]; pH5.5, 0.5 hr
  Production rate of Alvocidib: 1.1%
  Residual rate: 90.9%
[1]; pH5.5, 1 hr
  Production rate of Alvocidib: 1.2%
  Residual rate: 90.6%
[1]; pH5.5, 2 hr
  Production rate of Alvocidib: 1.2%
  Residual rate: 89.9%
[1]; pH5.5, 3 hr
  Production rate of Alvocidib: 1.1%
  Residual rate: 90.7%
[1]; pH6.0, 0 hr
  Production rate of Alvocidib: 1.1%
  Residual rate: 91.0%
[1]; pH6.0, 0.5 hr
  Production rate of Alvocidib: 1.2%
  Residual rate: 90.8%
[1]; pH6.0, 1 hr
  Production rate of Alvocidib: 1.1%
  Residual rate: 90.9%
[1]; pH6.0, 2 hr
  Production rate of Alvocidib: 1.2%
  Residual rate: 90.0%
[1]; pH6.0, 3 hr
  Production rate of Alvocidib: 1.2%
  Residual rate: 90.9%
[1]; pH6.5, 0 hr
  Production rate of Alvocidib: 1.1%
  Residual rate: 90.8%
[1]; pH6.5, 0.5 hr
  Production rate of Alvocidib: 1.1%
  Residual rate: 90.9%
[1]; pH6.5, 1 hr
  Production rate of Alvocidib: 1.2%
  Residual rate: 90.8%
[1]; pH6.5, 2 hr
  Production rate of Alvocidib: 1.3%
  Residual rate: 89.9%
[1]; pH6.5, 3 hr
  Production rate of Alvocidib: 1.2%
  Residual rate: 90.8%
[1]; pH7.0, 0 hr
  Production rate of Alvocidib: 1.1%
  Residual rate: 91.0%
[1]; pH7.0, 0.5 hr
  Production rate of Alvocidib: 1.2%
  Residual rate: 91.0%
[1]; pH7.0, 1 hr
  Production rate of Alvocidib: 1.2%
  Residual rate: 90.9%
[1]; pH7.0, 2 hr
  Production rate of Alvocidib: 1.4%
  Residual rate: 89.8%
[1]; pH7.0, 3 hr
  Production rate of Alvocidib: 1.3%
  Residual rate: 90.8%
[1]; pH7.4, 0 hr
  Production rate of Alvocidib: 1.1%
  Residual rate: 91.0%
[1]; pH 7.4, 37° C., up to 3 hours
  Conversion to Alvocidib at pH 7.4: slowly converted to Alvocidib
[1]; pH7.4, 0.5 hr
  Production rate of Alvocidib: 1.2%
  Residual rate: 91.0%
[1]; pH7.4, 1 hr
  Production rate of Alvocidib: 1.2%
  Residual rate: 91.0%
[1]; pH7.4, 2 hr
  Production rate of Alvocidib: 1.4%
  Residual rate: 90.1%
[1]; pH7.4, 3 hr
  Production rate of Alvocidib: 1.3%
  Residual rate: 90.8%
[2]; 0 min
  Production rate (%) of Alvocidib: 1%
  Residual rate (%) of test compound: 100%
[2]; 60 min
  Production rate (%) of Alvocidib: 1%
  Residual rate (%) of test compound: 78%
[2]; 120 min
  Production rate (%) of Alvocidib: 2%
  Residual rate (%) of test compound: 101%
[3]; 0 min
  Production rate (%) of Alvocidib: 1%
  Residual rate (%) of test compound: 100%
[3]; 60 min
  Production rate (%) of Alvocidib: 7%
  Residual rate (%) of test compound: 90%
[3]; 120 min
  Production rate (%) of Alvocidib: 13%
  Residual rate (%) of test compound: 78%
